Patent US20080194545A1, “ANTIMICROBIAL COMPOSITIONS AND METHODS OF USE” (TRIUS THERAPEUTICS, priority 2007, published 2008)
pIC50: −log10 of the molar value.

What was measured:
S. aureus = assay: Antibacterial activity, minimal inhibitory concentration (MIC) against S. aureus; assay type: cell-based; conditions: Staphylococcus aureus
Description: Antibacterial activity as measured by the minimal inhibitory concentrations (MIC) and minimal bactericidal concentrations of compounds are well known (see., e.g., National Committee for Clinical Laboratory Standards 2000 Performance standards for antimicrobial disk susceptibility tests: approved standard, 7th ed. M2-A7, vol. 20, no. 1, Committee for Clinical Laboratory Standards, Wayne, Pa.)
In vitro testing for antibacterial activity may be accomplished through use of a whole-cell bacterial growth inhibition assay. For example, an […] assay identifies a substance that inhibits bacterial growth. Microtiter plates are prepared with serial dilutions of the test compound, adding to the preparation a given amount of growth substrate, and providing a preparation of bacteria. Inhibition of bacterial growth is determined, for example, by observing changes in optical densities of the bacterial cultures. Inhibition of bacterial growth is determined, for example, by comparing (in the presence and absence of a test compound) the rate of growth or the absolute growth of bacterial cells. Inhibition includes a reduction of one of the above measurements by at least 20%.

S. Aureus MetRS = S. Aureus MetRS (Staphylococcus aureus, UniProt Q5HII6); assay: MetRS inhibition (coupling of radiolabeled methionine to tRNAMet, TCA-precipitable counts); assay type: biochemical; conditions: purified MetRS enzyme
S. Aureus MetRS, sequence (Q5HII6 whole entry): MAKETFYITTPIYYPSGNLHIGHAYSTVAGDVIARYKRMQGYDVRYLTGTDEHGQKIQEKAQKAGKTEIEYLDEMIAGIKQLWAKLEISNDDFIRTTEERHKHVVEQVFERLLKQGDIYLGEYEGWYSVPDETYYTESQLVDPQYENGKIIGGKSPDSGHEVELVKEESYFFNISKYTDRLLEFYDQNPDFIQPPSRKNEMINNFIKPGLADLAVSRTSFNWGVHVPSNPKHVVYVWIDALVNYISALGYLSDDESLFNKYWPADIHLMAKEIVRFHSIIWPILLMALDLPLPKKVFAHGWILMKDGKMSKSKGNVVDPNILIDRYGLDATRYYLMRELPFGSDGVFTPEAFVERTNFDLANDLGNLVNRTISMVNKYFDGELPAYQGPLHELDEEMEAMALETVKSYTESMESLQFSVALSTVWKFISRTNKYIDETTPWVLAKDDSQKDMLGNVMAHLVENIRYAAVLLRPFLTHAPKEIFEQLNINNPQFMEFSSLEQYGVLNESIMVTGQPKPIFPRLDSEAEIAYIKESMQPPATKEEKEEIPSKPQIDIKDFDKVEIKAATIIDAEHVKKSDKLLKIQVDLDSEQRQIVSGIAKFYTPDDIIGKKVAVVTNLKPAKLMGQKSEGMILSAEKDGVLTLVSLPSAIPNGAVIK
Description: The inhibition of MetRS activity may be monitored through use of in vitro bio-chemical assays through use of purified MetRS protein. Synthesis of a MetRS polypeptide can readily be accomplished through use of any of the various art-known techniques. For instance, a MetRS polypeptide can be synthesized chemically in vitro or recombinant DNA methods which are well known to those skilled in the art can be used to construct expression vectors containing MetRS coding sequences, and appropriate transcriptional/translational control signals. These methods include, for example, in vitro recombinant DNA techniques, synthetic techniques and in vivo recombination/genetic recombination. Alternatively, RNA capable of encoding target gene protein sequences can be chemically synthesized through use of synthesizers, for example.
The compounds of the present invention may also be evaluated for the ability to inhibit MetRS activity through use of known methods that measure the MetRS-dependent coupling of methionine to its cognate tRNA. In the assay, radiolabeled methionine, tRNA^Met and purified MetRS enzyme are incubated under appropriate conditions in the presence and absence of test compound and the amount of TCA-precipitable counts, which reflects the amount of methionine coupled to tRNA^Met, is determined.

Compound | MIC (S. aureus) | pIC50 (S. Aureus MetRS)
COc1ccc(Oc2cc(N3CCOCC3)nc(NCc3nc4ccccc4[nH]3)n2)c(Cl)c1 [Compound 5.07] | ≤ 8 µg/mL | > 7.30
COc1ccc(Oc2cc(N(C)C)nc(NCc3nc4ccccc4[nH]3)n2)c(Cl)c1 [Compound 5.10] | ≤ 8 µg/mL | > 7.30
COc1ccc(Oc2cc(N3CC(C)NC(C)C3)nc(NCc3nc4ccccc4[nH]3)n2)c(Cl)c1 (centres unmarked) [Compound 5.26] | ≤ 8 µg/mL | > 7.30
CC1CN(c2cc(Oc3ccc(Cl)cc3Cl)nc(NCc3nc4ccccc4[nH]3)n2)CC(C)N1 (centres unmarked) [Compound 5.28] | ≤ 8 µg/mL | > 7.30
COc1ccc(Oc2cc(N3CCC(O)C3)nc(NCc3nc4ccccc4[nH]3)n2)c(Cl)c1 (centres unmarked) [Compound 5.35] | ≤ 8 µg/mL | –
O=C1CN(c2cc(Oc3ccc(Cl)cc3Cl)nc(NCc3nc4ccccc4[nH]3)n2)CCN1 [Compound 5.37] | ≤ 8 µg/mL | > 7.30
COc1ccc(Oc2cc(N3CCN(C(=O)c4ccco4)CC3)nc(NCc3nc4ccccc4[nH]3)n2)c(Cl)c1 [Compound 5.50] | ≤ 8 µg/mL | > 7.30
COc1ccc(Oc2cc(N3CCCC3CO)nc(NCc3nc4ccccc4[nH]3)n2)c(Cl)c1 (centres unmarked) [Compound 5.51] | ≤ 8 µg/mL | > 7.30
COc1ccc(Oc2cc(-n3cnc(C)c3)nc(NCc3nc4ccccc4[nH]3)n2)c(Cl)c1 [Compound 5.53] | ≤ 8 µg/mL | –
COc1ccc(Oc2cc(N3CCN(c4ncccn4)CC3)nc(NCc3nc4ccccc4[nH]3)n2)c(Cl)c1 [Compound 5.70] | ≤ 8 µg/mL | > 7.30
COc1ccc(Oc2cc(NNc3cc(=O)c4ccccc4[nH]3)nc(N(C)C)n2)c(Cl)c1 [Compound 6.06] | ≤ 8 µg/mL | > 7.30
COc1ccc(Oc2cc(NCc3nc4ccccc4[nH]3)nc(N3CCN(C(C)=O)CC3)n2)c(Cl)c1 [Compound 6.19] | ≤ 8 µg/mL | > 7.30
O=C1CN(c2nc(NCc3nc4ccccc4[nH]3)cc(Oc3ccc(Cl)cc3Cl)n2)CCN1 [Compound 6.23] | ≤ 8 µg/mL | > 7.30
COc1ccc(Oc2cc(NCc3nc4ccccc4[nH]3)nc(N3CCNC(=O)C3)n2)c(Cl)c1 [Compound 6.30] | ≤ 8 µg/mL | > 7.30
COc1ccc(Oc2cc(NCc3nc4ccccc4[nH]3)nc(N3CCN(c4ncccn4)CC3)n2)c(Cl)c1 [Compound 6.45] | ≤ 8 µg/mL | > 7.30
COc1ccc(Oc2cc(NCc3nc4ccccc4[nH]3)nc(N3CCN(C(=O)C4CC4)CC3)n2)c(Cl)c1 [Compound 6.48] | ≤ 8 µg/mL | > 7.30
COc1ccc(Oc2cc(NCc3nc4ccccc4[nH]3)nc(N3CCN(C(=O)N(C)C)CC3)n2)c(Cl)c1 [Compound 6.49] | ≤ 8 µg/mL | > 7.30
COc1cc(Cl)c(Oc2cc(NCc3nc4ccccc4[nH]3)nc(N3CCN(C(C)=O)CC3)n2)cc1OC [Compound 6.55] | ≤ 8 µg/mL | > 7.30
COc1cc(Cl)c(Oc2cc(NCc3nc4ccccc4[nH]3)nc(N3CCNC(=O)C3)n2)cc1OC [Compound 6.56] | ≤ 8 µg/mL | > 7.30
COc1ccc(Oc2cc(NCc3nc4ccccc4[nH]3)nc(N3CCN(C(=O)C4CCCO4)CC3)n2)c(Cl)c1 (centres unmarked) [Compound 6.61] | ≤ 8 µg/mL | > 7.30
CCN(C(C)=O)C1CCN(c2nc(NCc3nc4ccccc4[nH]3)cc(Oc3ccc(OC)cc3Cl)n2)C1 (centres unmarked) [Compound 6.62] | ≤ 8 µg/mL | > 7.30
COc1cc(Cl)c(Oc2cc(NCc3nc4ccccc4[nH]3)nc(N3CCCN(C(C)=O)CC3)n2)cc1OC [Compound 6.63] | ≤ 8 µg/mL | > 7.30

Compound | MIC (S. aureus) | pIC50 (S. Aureus MetRS)
COc1cc(Cl)c(Oc2cc(NCc3nc4ccccc4[nH]3)nc(N(C)C)n2)cc1OC [Compound 6.83] | ≤ 8 µg/mL | > 7.30
COc1cc(Cl)c(Oc2cc(NCc3nc4ccccc4[nH]3)nc(N3CCOCC3)n2)cc1OC [Compound 6.86] | ≤ 8 µg/mL | > 7.30
COc1cc(Cl)c(Oc2cc(NCc3nc4ccccc4[nH]3)nc(N3CCN(C(=O)C4CC4)CC3)n2)cc1OC [Compound 6.88] | ≤ 8 µg/mL | > 7.30
COc1cc(Cl)c(Oc2cc(NCc3nc4ccccc4[nH]3)nc(N3CCN(C(=O)N(C)C)CC3)n2)cc1OC [Compound 6.89] | ≤ 8 µg/mL | > 7.30
COc1cc(Cl)c(Oc2cc(NCc3nc4ccccc4[nH]3)nc(N3CCN(c4ncccn4)CC3)n2)cc1OC [Compound 6.90] | ≤ 8 µg/mL | > 7.30
COc1cc(Cl)c(Oc2cc(NCc3nc4ccccc4[nH]3)nc(N3CCN(c4ccccn4)CC3)n2)cc1OC [Compound 6.91] | ≤ 8 µg/mL | > 7.30
COc1cc(Cl)c(Oc2cc(NCc3nc4ccccc4[nH]3)nc(N3CCN(c4cnccn4)CC3)n2)cc1OC [Compound 6.93] | ≤ 8 µg/mL | > 7.30
COc1cc(Cl)c(Oc2cc(NCc3nc4ccccc4[nH]3)nc(N3CCN(CCCN4CCOCC4)CC3)n2)cc1OC [Compound 6.94] | ≤ 8 µg/mL | > 7.30
COc1cc(Cl)c(Oc2cc(NCc3nc4ccccc4[nH]3)nc(N3CCN(c4ccncc4)CC3)n2)cc1OC [Compound 6.95] | ≤ 8 µg/mL | > 7.30
COc1ccnc(N2CCN(c3nc(NCc4nc5ccccc5[nH]4)cc(Oc4cc(OC)c(OC)cc4Cl)n3)CC2)n1 [Compound 6.96] | ≤ 8 µg/mL | > 7.30
COc1cc(Cl)c(Oc2cc(NCc3nc4ccccc4[nH]3)nc(N3CCN(c4ncncn4)CC3)n2)cc1OC [Compound 6.105] | ≤ 8 µg/mL | > 7.30
COc1cc(Cl)c(Oc2cc(NCc3nc4ccccc4[nH]3)nc(N3CCN(c4nccs4)CC3)n2)cc1OC [Compound 6.107] | ≤ 8 µg/mL | > 7.30
COc1cc(Cl)c(Oc2cc(NCc3nc4ccccc4[nH]3)nc(N3CCN(CCn4ccnc4)CC3)n2)cc1OC [Compound 6.113] | ≤ 8 µg/mL | > 7.30
COc1cc(Cl)c(Oc2cc(NCc3nc4ccccc4[nH]3)nc(N3CCN(C(=O)CNc4nccs4)CC3)n2)cc1OC [Compound 6.126] | ≤ 8 µg/mL | > 7.30
COc1cc(Cl)c(Oc2cc(NCc3nc4ccccc4[nH]3)nc(N3CCN(C(=O)N4CCOCC4)CC3)n2)cc1OC [Compound 6.134] | ≤ 8 µg/mL | > 7.30
COc1cc(Cl)c(Oc2cc(NCc3nc4ccccc4[nH]3)nc(N3CCC(N4CCOCC4)CC3)n2)cc1OC [Compound 6.138] | ≤ 8 µg/mL | > 7.30
COc1cc(Cl)c(Oc2cc(NCc3nc4ccccc4[nH]3)nc(N3CCN(CCN4CCOCC4)CC3)n2)cc1OC [Compound 6.140] | ≤ 8 µg/mL | > 7.30
COc1cc(Cl)c(Oc2cc(NCc3nc4ccccc4[nH]3)nc(N3CCN(CCN4CCCC4)CC3)n2)cc1OC [Compound 6.142] | ≤ 8 µg/mL | > 7.30
COc1cc(Cl)c(Oc2cc(NCc3nc4ccccc4[nH]3)nc(N3CCN(Cn4ccnc4C)CC3)n2)cc1OC [Compound 6.143] | ≤ 8 µg/mL | > 7.30
COc1cc(Cl)c(Oc2cc(NCc3nc4ccccc4[nH]3)nc(N3CCN(C(=O)N4CCCC4)CC3)n2)cc1OC [Compound 6.144] | ≤ 8 µg/mL | > 7.30
COc1cc(Cl)c(Oc2cc(NCc3nc4ccccc4[nH]3)nc(N3CCC(CN4CCCC4=O)CC3)n2)cc1OC [Compound 6.145] | ≤ 8 µg/mL | > 7.30
CC(=O)N1CCN(c2nc(NCc3nc4ccccc4[nH]3)cc(Oc3ccc4ncccc4c3Cl)n2)CC1 [Compound 6.150] | ≤ 8 µg/mL | > 7.30
